Data: US20060167030A1, “Sulfonamido-macrocycles and the salts thereof, a pharmaceutical composition comprising these compounds, the method of preparing and the use thereof” (priority 2004, published 2006)
pIC50: −log10 of the molar value.

Legend:
Tie2 = target: T1, Tie2 (Homo sapiens, UniProt Q02763); assay: Tie2 kinase assay or Tie2 autophosphorylation ELISA test (not stated which); type: biochemical; settings: either assay; not specified per compound; read-out: IC50 of Tie2 inhibition, either in the Tie2 kinase assay or in the Tie2 autophosphorylation ELISA test
T1 construct: fused on or other part: GST in the kinase assays; none in the CHO cell assay
T1 sequence (Q02763 770-1124 limits assumed): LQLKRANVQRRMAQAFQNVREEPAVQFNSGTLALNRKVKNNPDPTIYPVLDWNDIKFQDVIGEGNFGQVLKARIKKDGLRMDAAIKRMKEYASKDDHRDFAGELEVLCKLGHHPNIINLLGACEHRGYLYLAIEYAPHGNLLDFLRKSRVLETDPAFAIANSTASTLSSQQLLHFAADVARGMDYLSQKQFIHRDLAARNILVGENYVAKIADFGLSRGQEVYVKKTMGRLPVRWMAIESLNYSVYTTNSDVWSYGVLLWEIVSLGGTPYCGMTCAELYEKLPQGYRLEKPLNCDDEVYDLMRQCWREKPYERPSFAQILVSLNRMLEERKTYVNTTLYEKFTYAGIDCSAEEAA
Text: Biological Experiment 1: ELISA Method
Herein CHO cell-cultures, which are stably transfected by known techniques with Tie2 using DHFR deficiency as selection marker, are stimulated by angiopoietin-2. The specific autophosphorytation of Tie2 receptors is quantified with a sandwich-ELISA using anti-Tie2 antibodies for catch and anti-phosphotyrosine antibodies coupled to HRP as detection.
• 96 well tissue culture plate, sterile, Greiner • 96 well FluoroNunc plate MaxiSorp Surface C, Nunc • 96 well plate polypropylene for compound dilution in DMSO • CHO Tie2/DHFR (transfected cells) • PBS−; PBS++, DMSO • MEM alpha Medium with Glutamax-I without Ribonucleosides and Deoxyribonucleosides (Gibco #32561-029) • with 10% FCS after dialysis! and 1% PenStrep • Lysis buffer: 1 Tablet “Complete” protease inhibitor • 1 cap Vanadate (1 mL>40 mg/mL; working solution 2 mM) • ad 50 mL with Duschl-Puffer • pH 7.6 • Anti-TIE-II antibody 1:425 in Coating Buffer pH 9.6 • Stock solution: 1.275 mg/mL>working: 3 μg/mL • PBST: 2 bottles PBS(10×)+10 ml Tween, fill up with VE-water • RotiBlock 1:10 in VE-water • Anti-Phosphotyrosine HRP-Conjugated 1:10000 in 3% TopBlock • 3% TopBlock in PBST • BM Chemiluminescence ELISA Substrate (POD) • solution B 1:100 solution A • SF9 cell culture medium • Ang2-Fc in SF9 cell culture medium Cell Experiment: • Dispense 5×10^4 cells/well/98 μL in 96 well tissue culture plate • Incubate at 37° C./5% CO2 • After 24 h add compounds according to desired concentrations • Add also to control and stimulated values without compounds 2 μL DMSO • And mix for a few min at room temperature • Add 100 μL Ang2-Fc to all wells except control, which receives insect medium • Incubate 20 min at 37° C. • Wash 3× with PBS++ • Add 100 μl Lysis buffer/well and shake a couple of min at room temperature • Store lysates at […] before utilizing for the ELISA Performance of Sandwich-ELISA • Coat 96 well FluoroNunc Plate MaxiSorp Surface C with anti-Tie2 Mab • 1:425 in Coating buffer pH 9.6; 100 μL/well overnight at 4° C. • Wash 2× with PBST • Blcock plates with 250 μL/well RotiBtock 1:10 in VE-water • Incubate for 2 h at room temperature or overnight at 4° C. shaking • Wash 2× in PBST • Add thawed lysates to wells and incubate overnight shaking at 4° C. • Wash 2× with PBST • Add 100 μL/well anti-Phosphotyrosine HRP-Conjugated 1:10000 in 3% TopBLock (3% TopBLock in PBST) and incubate overnight under shaking • Wash 6× with PBST • Add 100 μL/well BM Chemiluminescence ELISA Substrate (POD) solutions 1 und 2 (1:100) • Determine luminescence with the LumiCount. Biological Experiment 2: Tie-2-Kinase HTRF-Assay
Tie-2 phosphorylates tyrosine residues of the artificial substrate poLyGAT (biolinylated poLyGLuAlaTyr). Detection of phosphorylated product is achieved specifically by a trimeric detection complex consisting of the phosphorylated substrate, streptavidin-XLent (SA-XLent) which binds to biotin, and Europium Cryptate-LabeLed anti-phosphotyrosine antibody PT66 which binds to phosphorylated tyrosine. Excitation of Europium fluorescence with 337 nm light results in emission of long-lived light with 620 nm. In case a trimeric detection complex has formed, part of the energy will be transferred to the SA-XLent fluorophore that itself then emits long-lived light of 665 nm (FRET: fluorescence resonance energy transfer). […] Measurement is performed in a Packard Discovery or BMG Rubystar instrument. A-counts (emission at 665 nm) will be divided by B-counts (emission at 620 nm) and multiplicated with a factor of 10000. The resulting numbers are called the “well ratio” of the sample.
A recombinant fusion protein of GST and the intracellular domains of Tie-2, expressed in insect cells (Hi-5) and purified by Glutathion-Sepharose affinity chromatography was used as kinase. Alternatively, commercially available GST-Tie2-fusion protein (Upstate Biotechnology, Dundee, Scotland) can be used. […]

[1] = Proliferation test / cytotoxicity assay (crystal violet); type: cell-based; settings: human, DU 145 tumour cells; cell line DU 145
Procedure: Biological Experiment 3: Proliferation Test
To examine cell toxicity a cell proliferation test were established.
With the cell proliferation test different tumour cell lines (e.g. Du 145) can be examined. The cells were dispensed in RPMI 1640 culture medium, supplied with 10% (v/v) fetal calf serum plus 1% (v/v) Penicillin/Streptomycin solution at a cell density of 2.000 cell/100 μL medium/per well (96 well plate). After three hours the cells were washed with PBS (containing calcium and magnesium). 100 μL of culture medium above with 0.1% (v/v) fetal calf serum was added and cultured at 37° C. and 5% CO2-atmosphere. Next day compounds of the present invention diluted in DMSO for appropriate concentrations were added and further 100 μL culture medium 0.5% (v/v) fetal calf serum. After 5 days cell culturing at 37° C. and 5% CO2-atmosphere cells were washed with PBS. 20 μL of glutaraldehyde solution (11% (v/v)) is added and the cells were slightly shaken at room temperature for 15 min. After that the cell were washed 3 times and dried in the air. 100 μL of crystal violet solution (0.1% at pH 3.5) were added and the cells were shaken for 30 min. The cells were washed with tap water and air-dried. The colour is dissolved with 100 μL of acetic acid (10% (v/v)) under strong shaking for 5 min. The absorption was measured at 595 nm wavelength.

| pIC50 (Tie2) | SMILES | IC50 at 5 days [1] [nM] |
| --- | --- | --- |
| ≥ 5.70 | O=S1(=O)NCCCNc2nc(ncc2-c2ccc(O)cc2)Nc2cccc1c2 [Example 9, 4-[4,4-dioxo-4λ^6-thia-2,5,9-triaza-1(2,4)-pyrimidina-3(1,3)-benzenacyclononaphan-1^5-yl]phenol] | – |
| ≥ 5.70 | CC(=O)c1ccc(-c2cnc3nc2NCCCNS(=O)(=O)c2cccc(c2)N3)cc1 [Example 7, 1-[4-[4,4-dioxo-4λ^6-thia-2,5,9-triaza-1(2,4)-pyrimidina-3(1,3)-benzenacyclononaphan-1^5-yl]phenyl]-ethanone] | > 1000 |
| ≥ 5.70 | COC(=O)c1ccc(-c2cnc3nc2NCCCNS(=O)(=O)c2cccc(c2)N3)cc1 [Example 6, methyl 4-[4,4-dioxo-4λ^6-thia-2,5,9-triaza-1(2,4)-pyrimidina-3(1,3)-benzenacyclononaphan-1^5-yl]benzoate] | > 1000 |
| ≥ 5.70 | COc1ccc(-c2cnc3nc2NCCCNS(=O)(=O)c2cccc(c2)N3)cc1 [Example 10, 1^5-(4-methoxyphenyl)-4-thia-2,5,9-triaza-1(2,4)-pyrimidina-3(1,3)-benzenacyclononaphane 4,4-dioxide] | > 1000 |
| ≥ 5.70 | C=C(c1ccccc1)c1cnc2nc1NCCCNS(=O)(=O)c1cccc(c1)N2 [Example 52, 1^5-(1-phenyl-vinyl)-4-thia-2,5,9-triaza-1(2,4)-pyrimidina-3(1,3)-benzenacyclononaphane 4,4-dioxide] | – |
| ≥ 5.70 | O=S1(=O)NCCCNc2nc(ncc2-c2ccccc2)Nc2cccc1c2 [Example 8, 1^5-phenyl-4-thia-2,5,9-triaza-1(2,4)-pyrimidina-3(1,3)-benzenacyclononaphane 4,4-dioxide] | > 1000 |
| ≥ 5.70 | CS(=O)(=O)c1ccc(-c2cnc3nc2NCCCNS(=O)(=O)c2cccc(c2)N3)cc1 [Example 11, 1^5-(4-methylsulfonylphenyl)-4-thia-2,5,9-triaza-1(2,4)-pyrimidina-3(1,3)-benzenacyclononaphane 4,4-dioxide] | – |
| ≥ 5.70 | O=S1(=O)NCCCNc2nc(ncc2/C=C\c2ccccc2)Nc2cccc1c2 [Example 51, 1^5-((Z)-styryl)-4-thia-2,5,9-triaza-1(2,4)-pyrimidina-3(1,3)-benzenacyclononaphane 4,4-dioxide] | – |
